Measured values as given in paper PMC12362615, “Design, Synthesis, and Cellular Characterization of a New Class of IPMK Kinase Inhibitors” (Journal of Medicinal Chemistry, 2025).
“Also recorded” adds a separate entry of the source.

How the values were obtained:
[1] = tested on: SF-1 target genes in HEK293 cells bearing tetracycline-inducible SF-1; assay: RT-qPCR analysis of SF-1 target genes; format: cell-based, human; parameters: key to relative NR0B2 expression vs DMSO + TET control / relative StAR expression vs DMSO + TET control: ns = not significant; *p<0.05; ****p<0.0001; settings: for relative CYP11A1 expression vs DMSO + TET control / relative NR0B2 expression vs DMSO + TET control / relative StAR expression vs DMSO + TET control: 24 h, HEK293 Tet-inducible SF-1
MET = target: T1, MET (Homo sapiens, UniProt P08581); assay: Protein kinase profiling, Mobility Shift Assay (Carna Biosciences); format: biochemical; settings: read-out: % Inhibition at 1.0 μM 14
T1 construct: purchased Carna Biosciences
Procedure: (§1) Protein kinase profiling of compound 14 was executed by Carna Biosciences. Briefly, compound 14 was prepared by dissolving it in dimethyl sulfoxide (DMSO) and then further diluting it in DMSO to a concentration of […]. That stock solution was further diluted 25-fold with kinase assay buffer (20 mM HEPES, 0.01% Triton X-100, 2 mM DTT, pH 7.5) to make the final 1 μM compound 14 solution. Reference compounds for the assay controls were prepared similarly. The off-chip Mobility Shift Assay (MSA) was prepared with 5 μL of 4× compound solution, 5 μL of 4× substrate/ATP/metal solution, and 10 μL of 2× kinase solution, prepared with assay buffer (20 mM HEPES, 0.01% Triton X-100, 2 mM DTT, pH 7.5). The components were mixed and incubated in a polypropylene 384-well microplate for 1 h or 5 h at room temperature, depending on the kinase being tested. 60 μL of termination buffer (QuickScout Screening Assist MSA; Carna Biosciences) was added to the well to stop the reactions, and the mixture was applied to a LabChip3000 system (Caliper Life Sciences. The product and substrate peptide peaks were separated and quantitated. The kinase reactions were evaluated by the product ratio, calculated from the peak heights of the product (P) and substrate (S) peptides (P/(P + S)). Product ratio values for the control reaction were set as 0% inhibition, and the readout value of the background (no kinase added) was set as 100% inhibition. The percent inhibition of each test solution was then calculated as reported in Figure A. The phylogenetic tree was generated using KinMap at https://bmcbioinformatics.biomedcentral.com/articles/10.1186/s12859-016-1433-7.

Erk2 = target: T2, Erk2 (Homo sapiens, UniProt P28482); assay: as above; format: biochemical; settings: read-out: % Inhibition at 1.0 μM 14
T2 construct: purchased Carna Biosciences
Procedure: as §1

CaMK4 = target: T3, CaMK4 (Homo sapiens, UniProt Q16566); assay: as above; format: biochemical; settings: read-out: % Inhibition at 1.0 μM 14
T3 construct: purchased Carna Biosciences
Procedure: as §1

CDK2 = target: T4, CDK2 (Homo sapiens, UniProt P24941); assay: as above; format: biochemical; settings: read-out: % Inhibition at 1.0 μM 14
T4 construct: purchased Carna Biosciences
Procedure: as §1

SRC = target: T5, SRC (Homo sapiens, UniProt P12931); assay: as above; format: biochemical; settings: read-out: % Inhibition at 1.0 μM 14
T5 construct: purchased Carna Biosciences
Procedure: as §1

SYK = target: T6, SYK (Homo sapiens, UniProt P43405); assay: as above; format: biochemical; settings: read-out: % Inhibition at 1.0 μM 14
T6 construct: purchased Carna Biosciences
Procedure: as §1

TRKA = target: T7, TRKA (Homo sapiens, UniProt P04629); assay: as above; format: biochemical; settings: read-out: % Inhibition at 1.0 μM 14
T7 construct: purchased Carna Biosciences
T7 sequence (P04629 33-796): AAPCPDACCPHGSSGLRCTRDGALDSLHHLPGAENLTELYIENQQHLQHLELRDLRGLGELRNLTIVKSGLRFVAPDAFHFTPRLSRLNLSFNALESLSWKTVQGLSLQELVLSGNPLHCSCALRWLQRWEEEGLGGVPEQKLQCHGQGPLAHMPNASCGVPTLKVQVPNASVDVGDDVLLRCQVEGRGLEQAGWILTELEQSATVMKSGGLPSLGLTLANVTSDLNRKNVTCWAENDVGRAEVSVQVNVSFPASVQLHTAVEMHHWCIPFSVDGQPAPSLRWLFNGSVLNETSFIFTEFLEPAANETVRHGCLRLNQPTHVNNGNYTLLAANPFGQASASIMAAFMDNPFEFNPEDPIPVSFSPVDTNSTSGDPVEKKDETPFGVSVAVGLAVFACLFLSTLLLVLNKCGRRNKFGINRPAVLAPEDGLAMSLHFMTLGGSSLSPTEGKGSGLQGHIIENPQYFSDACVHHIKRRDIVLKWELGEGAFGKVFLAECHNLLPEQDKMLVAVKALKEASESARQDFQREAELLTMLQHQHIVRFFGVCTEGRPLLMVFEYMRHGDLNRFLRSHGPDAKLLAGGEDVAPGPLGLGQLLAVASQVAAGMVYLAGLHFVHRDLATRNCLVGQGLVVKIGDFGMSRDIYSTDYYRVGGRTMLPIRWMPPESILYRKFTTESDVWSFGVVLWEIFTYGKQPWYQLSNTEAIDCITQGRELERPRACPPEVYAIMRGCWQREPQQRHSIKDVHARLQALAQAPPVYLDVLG
Procedure: as §1

FGFR1 = target: T8, FGFR1 (Homo sapiens, UniProt P11362); assay: as above; format: biochemical; settings: read-out: % Inhibition at 1.0 μM 14
T8 construct: purchased Carna Biosciences
T8 sequence (P11362 22-822): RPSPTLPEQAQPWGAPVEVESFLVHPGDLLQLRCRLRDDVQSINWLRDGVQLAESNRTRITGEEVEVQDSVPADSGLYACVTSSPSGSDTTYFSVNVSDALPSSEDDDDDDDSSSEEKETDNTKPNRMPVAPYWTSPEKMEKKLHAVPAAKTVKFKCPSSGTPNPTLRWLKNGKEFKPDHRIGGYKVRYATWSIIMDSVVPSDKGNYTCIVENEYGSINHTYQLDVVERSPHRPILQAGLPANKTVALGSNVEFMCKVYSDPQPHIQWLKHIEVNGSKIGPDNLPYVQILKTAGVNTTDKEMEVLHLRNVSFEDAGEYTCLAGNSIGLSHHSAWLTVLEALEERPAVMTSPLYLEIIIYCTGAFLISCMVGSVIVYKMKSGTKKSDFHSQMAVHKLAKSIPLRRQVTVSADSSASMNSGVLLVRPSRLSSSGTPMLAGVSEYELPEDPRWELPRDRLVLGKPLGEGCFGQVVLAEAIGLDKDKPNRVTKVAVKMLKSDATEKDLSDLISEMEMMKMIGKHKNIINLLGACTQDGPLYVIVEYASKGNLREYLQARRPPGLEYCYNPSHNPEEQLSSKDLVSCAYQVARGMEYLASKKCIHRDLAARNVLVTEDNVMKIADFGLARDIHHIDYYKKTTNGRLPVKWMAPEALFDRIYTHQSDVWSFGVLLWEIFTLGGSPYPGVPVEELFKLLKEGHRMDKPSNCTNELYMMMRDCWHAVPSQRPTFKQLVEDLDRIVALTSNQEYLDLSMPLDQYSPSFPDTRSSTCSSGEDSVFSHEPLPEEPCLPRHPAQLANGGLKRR
Procedure: as §1

IRAK4 = target: T9, IRAK4 (Homo sapiens, UniProt Q9NWZ3); assay: as above; format: biochemical; settings: read-out: % Inhibition at 1.0 μM 14
T9 construct: purchased Carna Biosciences
Procedure: as §1

MER = target: T10, MER (Homo sapiens, UniProt Q12866); assay: as above; format: biochemical; settings: read-out: % Inhibition at 1.0 μM 14
T10 construct: purchased Carna Biosciences
Procedure: as §1

MST1 = target: T11, MST1 (Homo sapiens, UniProt Q13043); assay: as above; format: biochemical; settings: read-out: % Inhibition at 1.0 μM 14
T11 construct: purchased Carna Biosciences
Procedure: as §1

IKKb = target: T12, IKKb (Homo sapiens, UniProt O14920); assay: as above; format: biochemical; settings: read-out: % Inhibition at 1.0 μM 14
T12 construct: purchased Carna Biosciences
Procedure: as §1

ROCK1 = target: T13, ROCK1 (Homo sapiens, UniProt Q13464); assay: as above; format: biochemical; settings: read-out: % Inhibition at 1.0 μM 14
T13 construct: purchased Carna Biosciences
Procedure: as §1

IGF1R = target: T14, IGF1R (Homo sapiens, UniProt P08069); assay: as above; format: biochemical; settings: read-out: % Inhibition at 1.0 μM 14
T14 construct: purchased Carna Biosciences
T14 sequence (P08069 31-1367): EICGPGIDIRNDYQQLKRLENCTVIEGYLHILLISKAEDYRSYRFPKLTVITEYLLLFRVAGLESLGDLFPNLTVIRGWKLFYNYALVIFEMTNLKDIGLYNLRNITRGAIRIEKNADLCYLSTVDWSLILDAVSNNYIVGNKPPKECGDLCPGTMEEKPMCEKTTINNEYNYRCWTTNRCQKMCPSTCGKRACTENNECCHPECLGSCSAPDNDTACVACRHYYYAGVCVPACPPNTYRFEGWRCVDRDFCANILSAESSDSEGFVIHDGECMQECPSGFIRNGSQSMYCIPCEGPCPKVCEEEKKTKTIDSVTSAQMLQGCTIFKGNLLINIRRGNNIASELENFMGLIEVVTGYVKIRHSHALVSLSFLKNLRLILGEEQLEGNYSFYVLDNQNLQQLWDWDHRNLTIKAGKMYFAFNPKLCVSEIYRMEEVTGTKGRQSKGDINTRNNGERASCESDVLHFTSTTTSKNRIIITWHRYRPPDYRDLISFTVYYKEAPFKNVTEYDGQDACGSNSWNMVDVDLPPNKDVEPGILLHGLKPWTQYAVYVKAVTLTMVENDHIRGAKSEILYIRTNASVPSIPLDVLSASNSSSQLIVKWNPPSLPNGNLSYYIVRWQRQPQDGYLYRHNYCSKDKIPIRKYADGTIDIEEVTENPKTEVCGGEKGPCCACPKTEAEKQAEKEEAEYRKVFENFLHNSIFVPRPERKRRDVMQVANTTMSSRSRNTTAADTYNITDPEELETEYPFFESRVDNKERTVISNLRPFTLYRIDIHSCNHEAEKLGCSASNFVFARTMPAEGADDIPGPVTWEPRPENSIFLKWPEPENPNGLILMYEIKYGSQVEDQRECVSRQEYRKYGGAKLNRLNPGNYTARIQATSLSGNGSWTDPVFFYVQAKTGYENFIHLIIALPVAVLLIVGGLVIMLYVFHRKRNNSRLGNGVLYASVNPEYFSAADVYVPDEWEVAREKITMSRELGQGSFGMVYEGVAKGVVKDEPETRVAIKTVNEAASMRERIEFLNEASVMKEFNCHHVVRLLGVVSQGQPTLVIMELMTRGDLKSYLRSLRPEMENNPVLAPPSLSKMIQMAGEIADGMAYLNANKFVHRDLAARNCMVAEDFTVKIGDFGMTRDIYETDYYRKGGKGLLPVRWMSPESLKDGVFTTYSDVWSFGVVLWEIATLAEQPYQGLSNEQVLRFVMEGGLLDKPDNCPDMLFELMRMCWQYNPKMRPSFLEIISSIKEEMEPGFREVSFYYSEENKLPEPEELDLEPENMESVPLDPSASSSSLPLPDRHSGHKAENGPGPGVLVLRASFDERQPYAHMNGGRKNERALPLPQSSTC
Procedure: as §1

JNK2 = target: T15, JNK2 (Homo sapiens, UniProt P45984); assay: as above; format: biochemical; settings: read-out: % Inhibition at 1.0 μM 14
T15 construct: purchased Carna Biosciences
Procedure: as §1

AurA = target: T16, AurA (Homo sapiens, UniProt O14965); assay: as above; format: biochemical; settings: read-out: % Inhibition at 1.0 μM 14
T16 construct: purchased Carna Biosciences
Procedure: as §1

EGFR = target: T17, EGFR (Homo sapiens, UniProt P00533); assay: as above; format: biochemical; settings: read-out: % Inhibition at 1.0 μM 14
T17 construct: purchased Carna Biosciences
T17 sequence (P00533 25-1210): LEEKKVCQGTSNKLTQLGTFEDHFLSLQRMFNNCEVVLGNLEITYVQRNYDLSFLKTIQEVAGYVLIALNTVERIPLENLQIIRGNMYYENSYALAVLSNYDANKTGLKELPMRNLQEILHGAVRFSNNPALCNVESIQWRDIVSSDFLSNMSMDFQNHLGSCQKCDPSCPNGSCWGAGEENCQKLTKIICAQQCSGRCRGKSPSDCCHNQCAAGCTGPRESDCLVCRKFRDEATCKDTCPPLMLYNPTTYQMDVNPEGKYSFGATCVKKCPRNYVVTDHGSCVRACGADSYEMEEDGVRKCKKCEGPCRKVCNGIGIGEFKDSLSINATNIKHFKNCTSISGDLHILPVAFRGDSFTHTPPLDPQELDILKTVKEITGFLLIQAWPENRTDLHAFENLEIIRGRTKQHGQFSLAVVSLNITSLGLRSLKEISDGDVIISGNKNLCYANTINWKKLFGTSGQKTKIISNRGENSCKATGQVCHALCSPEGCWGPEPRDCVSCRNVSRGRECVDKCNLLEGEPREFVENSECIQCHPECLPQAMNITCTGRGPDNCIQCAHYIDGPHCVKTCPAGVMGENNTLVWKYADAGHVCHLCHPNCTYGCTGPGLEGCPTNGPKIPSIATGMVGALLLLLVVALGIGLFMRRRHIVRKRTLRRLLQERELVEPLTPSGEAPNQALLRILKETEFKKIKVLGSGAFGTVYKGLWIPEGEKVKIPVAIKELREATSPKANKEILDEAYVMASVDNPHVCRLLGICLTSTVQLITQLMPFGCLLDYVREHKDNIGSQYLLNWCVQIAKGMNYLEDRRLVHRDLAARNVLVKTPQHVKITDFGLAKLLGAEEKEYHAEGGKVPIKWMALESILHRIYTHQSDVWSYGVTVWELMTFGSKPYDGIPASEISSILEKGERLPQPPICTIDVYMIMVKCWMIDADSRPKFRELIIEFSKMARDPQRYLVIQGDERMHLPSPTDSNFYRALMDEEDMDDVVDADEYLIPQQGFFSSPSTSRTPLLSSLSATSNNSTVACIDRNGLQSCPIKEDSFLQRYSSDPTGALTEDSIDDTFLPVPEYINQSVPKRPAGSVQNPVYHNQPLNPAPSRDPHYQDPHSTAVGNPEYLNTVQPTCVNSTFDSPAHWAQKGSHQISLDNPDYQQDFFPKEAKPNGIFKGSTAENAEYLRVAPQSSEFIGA
Procedure: as §1

CSK = target: T18, CSK (Homo sapiens, UniProt P41240); assay: as above; format: biochemical; settings: read-out: % Inhibition at 1.0 μM 14
T18 construct: purchased Carna Biosciences
T18 sequence (P41240 whole entry): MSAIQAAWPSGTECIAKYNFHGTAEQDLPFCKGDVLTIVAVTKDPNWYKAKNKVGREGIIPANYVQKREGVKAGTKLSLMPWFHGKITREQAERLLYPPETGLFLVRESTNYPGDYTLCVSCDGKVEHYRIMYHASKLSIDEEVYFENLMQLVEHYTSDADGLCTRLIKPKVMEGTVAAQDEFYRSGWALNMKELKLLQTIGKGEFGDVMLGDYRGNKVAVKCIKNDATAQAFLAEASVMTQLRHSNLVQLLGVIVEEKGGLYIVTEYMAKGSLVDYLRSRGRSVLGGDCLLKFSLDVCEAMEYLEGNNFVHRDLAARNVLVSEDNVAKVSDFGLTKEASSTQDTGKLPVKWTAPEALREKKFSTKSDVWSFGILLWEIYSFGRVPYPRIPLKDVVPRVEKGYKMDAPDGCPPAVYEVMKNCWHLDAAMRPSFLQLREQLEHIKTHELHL
Procedure: as §1

AKT1 = target: T19, AKT1 (Homo sapiens, UniProt P31749); assay: as above; format: biochemical; settings: read-out: % Inhibition at 1.0 μM 14
T19 construct: purchased Carna Biosciences
Procedure: as §1

ITK = target: T20, ITK (Homo sapiens, UniProt Q08881); assay: as above; format: biochemical; settings: read-out: % Inhibition at 1.0 μM 14
T20 construct: purchased Carna Biosciences
Procedure: as §1

JAK3 = target: T21, JAK3 (Homo sapiens, UniProt P52333); assay: as above; format: biochemical; settings: read-out: % Inhibition at 1.0 μM 14
T21 construct: purchased Carna Biosciences
Procedure: as §1

p38a = target: T22, p38a (Homo sapiens, UniProt Q16539); assay: as above; format: biochemical; settings: read-out: % Inhibition at 1.0 μM 14
T22 construct: purchased Carna Biosciences
T22 sequence (Q16539 whole entry): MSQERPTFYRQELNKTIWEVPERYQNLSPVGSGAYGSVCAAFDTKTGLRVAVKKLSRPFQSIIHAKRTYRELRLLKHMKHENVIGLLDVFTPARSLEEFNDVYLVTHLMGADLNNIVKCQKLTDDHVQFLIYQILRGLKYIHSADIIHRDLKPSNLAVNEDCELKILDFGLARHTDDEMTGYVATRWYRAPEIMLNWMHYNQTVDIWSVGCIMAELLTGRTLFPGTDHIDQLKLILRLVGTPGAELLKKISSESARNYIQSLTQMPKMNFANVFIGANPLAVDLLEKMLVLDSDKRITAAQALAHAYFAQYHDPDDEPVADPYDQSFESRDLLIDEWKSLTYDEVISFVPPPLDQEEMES
Procedure: as §1

PKCa = target: T23, PKCa (Homo sapiens, UniProt P17252); assay: as above; format: biochemical; settings: read-out: % Inhibition at 1.0 μM 14
T23 construct: purchased Carna Biosciences
Procedure: as §1

ABL = target: T24, ABL (Homo sapiens, UniProt P00519); assay: as above; format: biochemical; settings: read-out: % Inhibition at 1.0 μM 14
T24 construct: purchased Carna Biosciences
Procedure: as §1

LCK = target: T25, LCK (Homo sapiens, UniProt P06239); assay: as above; format: biochemical; settings: read-out: % Inhibition at 1.0 μM 14
T25 construct: purchased Carna Biosciences
Procedure: as §1

KDR = target: T26, KDR (Homo sapiens, UniProt P35968); assay: as above; format: biochemical; settings: read-out: % Inhibition at 1.0 μM 14
T26 construct: purchased Carna Biosciences
Procedure: as §1

S6Kb = assay: as above; format: biochemical, human
Procedure: Protein kinase profiling of compound 14 was executed by Carna Biosciences. Briefly, compound 14 was prepared by dissolving it in dimethyl sulfoxide (DMSO) and then further diluting it in DMSO to a concentration of 25 μM. That stock solution was further diluted 25-fold with kinase assay buffer (20 mM HEPES, 0.01% Triton X-100, 2 mM DTT, pH 7.5) to make the final 1 μM compound 14 solution. Reference compounds for the assay controls were prepared similarly. The off-chip Mobility Shift Assay (MSA) was prepared with 5 μL of 4× compound solution, 5 μL of 4× substrate/ATP/metal solution, and 10 μL of 2× kinase solution, prepared with assay buffer (20 mM HEPES, 0.01% Triton X-100, 2 mM DTT, pH 7.5). The components were mixed and incubated in a polypropylene 384-well microplate for 1 h or 5 h at room temperature, depending on the kinase being tested. […]

Structure (SMILES): c1cc(-c2onc3ccc(-c4nnn[nH]4)cc23)cc(C2CCN(C3CCC3)CC2)c1 [Compound 14, 3-(3-(1-Cyclobutylpiperidin-4-yl)phenyl)-5-(1H-tetrazol-5-yl)benzo[c]isoxazole]
- relative CYP11A1 expression vs DMSO + TET control ([1]; 10 μM): * (*p<0.05)
- relative NR0B2 expression vs DMSO + TET control ([1]; 10 μM): ns
- relative StAR expression vs DMSO + TET control ([1]; 10 μM): ns
- relative CYP11A1 expression vs DMSO + TET control ([1]; 30 μM): * (*p<0.05)
- relative NR0B2 expression vs DMSO + TET control ([1]; 30 μM): * (*p<0.05)
- relative StAR expression vs DMSO + TET control ([1]; 30 μM): * (*p<0.05)
- relative CYP11A1 expression vs DMSO + TET control ([1]; 50 μM): **** (****p<0.0001)
- relative NR0B2 expression vs DMSO + TET control ([1]; 50 μM): **** (****p<0.0001)
- relative StAR expression vs DMSO + TET control ([1]; 50 μM): **** (****p<0.0001)
- regulation of nuclear receptor SF-1 target genes ([1]; HEK293 cells with Tet-inducible SF-1, 24 h): can regulate these target genes; also recorded: able to regulate nuclear receptor SF-1 target genes; also recorded: did detect changes
- inhibition at 1 µM (MET): 34.7%
- inhibition at 1 µM (Erk2): -2.2%
- inhibition at 1 µM (CaMK4): -4%
- inhibition at 1 µM (CDK2): 1.6%
- inhibition at 1 µM (SRC): 18.4%
- inhibition at 1 µM (SYK): -13%
- inhibition at 1 µM (TRKA): 35.9%
- inhibition at 1 µM (FGFR1): 40.5%
- inhibition at 1 µM (IRAK4): 1.3%
- inhibition at 1 µM (MER): 72%
- inhibition at 1 µM (MST1): 51%
- inhibition at 1 µM (IKKb): 0.4%
- inhibition at 1 µM (ROCK1): 6.1%
- inhibition at 1 µM (IGF1R): 1.7%
- inhibition at 1 µM (JNK2): 7.7%
- inhibition at 1 µM (AurA): 24.7%
- inhibition at 1 µM (EGFR): 3.4%
- inhibition at 1 µM (CSK): 5.5%
- inhibition at 1 µM (AKT1): 7.4%
- inhibition at 1 µM (ITK): 5.7%
- inhibition at 1 µM (JAK3): 72.8%
- inhibition at 1 µM (p38a): 2.6%
- inhibition at 1 µM (PKCa): 59.6%
- inhibition at 1 µM (ABL): 27.5%
- inhibition at 1 µM (LCK): 32.7%
- inhibition at 1 µM (KDR): ≥ 75%
- % Inhibition at 1.0 μM 14 (S6Kb): 9.4%
